From ChEMBL document CHEMBL1143144, “Antitumor studies. Part 4: Design, synthesis, antitumor activity, and molecular docking study of novel 2-substituted 2-deoxoflavin-5-oxides, 2-deoxoalloxazine-5-oxides, and their 5-deaza analogs” (Bioorg Med Chem, 2008)
≈ marks a conversion by molar mass, not a printed value.

Assays:
CCRF-HSB-2 = assay: Antitumor activity against human CCRF-HSB2 cells by MTT assay; assay type: functional, cell-based
KB = assay: Antitumor activity against human KB cells by MTT assay; assay type: functional, cell-based

IC50 (CCRF-HSB-2) | IC50 (KB) | SMILES
41.4 µg/mL (≈ 132 µM) | 71.7 µg/mL (≈ 229 µM) | COc1ccc2nc3nc(N4CCOCC4)[nH]c(=O)c3nc2c1
51.2 µg/mL (≈ 212 µM) | 63.1 µg/mL (≈ 262 µM) | CN(C)c1nc2nc3ccccc3nc2c(=O)[nH]1
1.74 µg/mL (≈ 6.76 µM) | 6.93 µg/mL (≈ 26.9 µM) | CNc1nc2n(C)c3ccccc3[n+]([O-])c-2c(=O)n1
2.7 µg/mL (≈ 11.2 µM) | 14.5 µg/mL (≈ 60.3 µM) | CNc1nc2n(C)c3ccccc3cc-2c(=O)n1
7.74 µg/mL (≈ 26.8 µM) | 13.4 µg/mL (≈ 46.5 µM) | CSc1nc2nc3ccc(C)cc3[n+]([O-])c2c(=O)n1C
6.77 µg/mL (≈ 26 µM) | 6.76 µg/mL (≈ 26 µM) | CSc1nc2nc3ccccc3[n+]([O-])c2c(=O)[nH]1
0.047 µg/mL (≈ 0.193 µM) | 0.23 µg/mL (≈ 0.946 µM) | Nc1ccn([C@@H]2O[C@H](CO)[C@@H](O)[C@@H]2O)c(=O)n1 [CYTARABINE]
9.84 µg/mL (≈ 32.3 µM) | 11 µg/mL (≈ 36.1 µM) | COc1ccc2c(c1)[n+]([O-])c1c(=O)nc(SC)nc-1n2C
17.1 µg/mL (≈ 59.3 µM) | 27.7 µg/mL (≈ 96.1 µM) | CSc1nc2n(C)c3ccc(C)cc3[n+]([O-])c-2c(=O)n1
6.18 µg/mL (≈ 18.1 µM) | 27.6 µg/mL (≈ 80.9 µM) | COc1ccc2c(c1)[n+]([O-])c1c(=O)nc(N3CCCCC3)nc-1n2C
6.66 µg/mL (≈ 21.6 µM) | 10.8 µg/mL (≈ 35 µM) | CSc1nc2n(C)c3ccc(Cl)cc3[n+]([O-])c-2c(=O)n1
8.63 µg/mL (≈ 31.5 µM) | 9.31 µg/mL (≈ 33.9 µM) | CSc1nc2nc3ccccc3[n+]([O-])c2c(=O)n1C
3.72 µg/mL (≈ 12.9 µM) | 8.19 µg/mL (≈ 28.4 µM) | CCn1c2nc(SC)nc(=O)c-2[n+]([O-])c2ccccc21
8.96 µg/mL (≈ 29.6 µM) | 14.2 µg/mL (≈ 47 µM) | CSc1nc2nc3c(C)cc(C)cc3[n+]([O-])c2c(=O)n1C
34.2 µg/mL (≈ 98.7 µM) | 54.8 µg/mL (≈ 158 µM) | CCOC(=O)Cn1c(SC)nc2nc3ccccc3[n+]([O-])c2c1=O
1.57 µg/mL (≈ 6.48 µM) | 1.89 µg/mL (≈ 7.8 µM) | CCn1c2nc(=O)[nH]c(=O)c-2nc2ccccc21

IC50 (CCRF-HSB-2) | IC50 (KB) | SMILES
1.46 µg/mL (≈ 4.85 µM) | 1.7 µg/mL (≈ 5.64 µM) | Cc1ccc2c(c1)[n+]([O-])c1c(=O)nc(NCCO)nc-1n2C
10 µg/mL (≈ 32.9 µM) | 12.5 µg/mL (≈ 41.1 µM) | COc1ccc2c(c1)n(C)c1nc(SC)nc(=O)c-1[n+]2[O-]
5.9 µg/mL (≈ 18.6 µM) | 10 µg/mL (≈ 31.6 µM) | CCn1c(SC)nc2nc3c(C)cc(C)cc3[n+]([O-])c2c1=O
14.3 µg/mL (≈ 47.3 µM) | 30 µg/mL (≈ 99.2 µM) | CSc1nc2n(C)c3cc(C)c(C)cc3[n+]([O-])c-2c(=O)n1
5.86 µg/mL (≈ 21.4 µM) | 5.8 µg/mL (≈ 21.1 µM) | CSc1nc2nc3ccc(C)cc3[n+]([O-])c2c(=O)[nH]1
4.11 µg/mL (≈ 14.2 µM) | 5.35 µg/mL (≈ 18.4 µM) | COc1ccc2nc3nc(SC)[nH]c(=O)c3[n+]([O-])c2c1
1.46 µg/mL (≈ 5.06 µM) | 0.61 µg/mL (≈ 2.12 µM) | CSc1nc2n(C)c3c(C)cccc3[n+]([O-])c-2c(=O)n1
23.2 µg/mL (≈ 95.4 µM) | 44.1 µg/mL (≈ 181 µM) | CSc1nc2nc3ccccc3cc2c(=O)[nH]1
5.1 µg/mL (≈ 18.6 µM) | 6.2 µg/mL (≈ 22.6 µM) | COc1ccc2c(c1)[n+]([O-])c1c(=O)[nH]c(=O)nc-1n2C
7.1 µg/mL (≈ 20.9 µM) | 33.7 µg/mL (≈ 99.3 µM) | Cc1ccc2c(c1)[n+]([O-])c1c(=O)nc(NC3CCCCC3)nc-1n2C
6 µg/mL (≈ 19.1 µM) | 8.1 µg/mL (≈ 25.8 µM) | CCn1c2nc(NCC(C)C)nc(=O)c-2[n+]([O-])c2ccccc21
34.7 µg/mL (≈ 115 µM) | 46.3 µg/mL (≈ 153 µM) | CCn1c2nc(SC)nc(=O)c-2[n+]([O-])c2cc(C)ccc21
1.56 µg/mL (≈ 5.69 µM) | 1.44 µg/mL (≈ 5.25 µM) | CSc1nc2n(C)c3ccccc3[n+]([O-])c-2c(=O)n1
1.8 µg/mL (≈ 7.89 µM) | 2.1 µg/mL (≈ 9.2 µM) | Cn1c2nc(=O)[nH]c(=O)c-2nc2ccccc21
6.29 µg/mL (≈ 21.8 µM) | 11.8 µg/mL (≈ 40.9 µM) | CSc1nc2nc3c(C)cc(C)cc3[n+]([O-])c2c(=O)[nH]1
